Experimental data published in patent publication US20040076668A1, “Controlled-release pharmaceutical formulations” (Pfizer Inc., priority 2002, published 2004).
Where two headings read alike, the source gives them in different places.

Key:
[1] = Dissolution as a function of dissolution media pH; type: physicochemical; settings: at the lower pH (simulated gastric fluid pH 1.2); sink conditions cannot be maintained
Experimental: In order to determine the amount of compound (I) dissolved in simulated gastric fluid at pH 1.2, the amount remaining in the formulations was assayed and subtracted from the amount initially present. This procedure was employed because, at the lower pH, the solubility of compound (I) is lower and sink conditions cannot be maintained during dissolution. [formula] [formula]

human subjects = assay: Human in vivo oral dosage escalation studies: nausea and emesis side-effects; settings: for dosages that could not be successfully administered due to the severity of nausea and emesis: immediate-release, human
Experimental: (§1) In Tables 13 and 14, standard deviation values are reported parenthetically. Furthermore, a “Yes” entry means greater than half of the subjects experienced the indicated side-effect, while a “No” entry indicates none, or less than half, of the subjects experienced the indicated side-effect.
(§2) The 3 mg dosages of compound (I) indicated in Tables 13 and 14 comprised the simultaneous administration of three 1 mg tablets of the SCT formulations of the present invention. Likewise, the 30 mg dosages of compound (I) comprised the simultaneous administration of three 10 mg tablets of the SCT formulations of the present invention.
(§3) The OPC immediate-release formulations comprising compound (I) were prepared extemporaneously by diluting powdered sodium citrate with water to a final concentration of 0.02 M and dissolving compound (I) therein with stirring. The prepared solution was then orally administered to the subject.
(§4) Analysis of such data will establish the relationship between the plasma pharmacokinetics and nausea and emesis side-effects in human subjects administered with dosages of compound (I). At Cmax values of less than 60 ng/mL, compound (I) was generally well tolerated. […] Dosages of compound (I) greater than 10 mg in the fasted state, and 30 mg in the fed state, could not be successfully administered due to the severity of the resulting nausea and emesis.
(§5) In some subjects given the 30 mg dosage in the fed state, the peak concentrations were in excess of 250 ng/mL, with the mean being 198 ng/mL. Predicated upon a Cmax threshold of 200 ng/mL for emesis, a much higher incidence of emesis would have been predicted to occur at this dosage.

[2] = as above; settings: human, in vivo, immediate-release formulations, human
Experimental: as §1, §2, §3, §4, §5

[3] = concluded from the IR formulation data

C[C@@H](Oc1ccc(CNC(=O)c2cccnc2Oc2ccc3c(c2)OCO3)c(F)c1)C(=O)O [Compound (I), (R)-2-[4-({[2-(Benzo[1,3]dioxol-5-yloxy)-pyridine-3-carbonyl]-amino}-methyl)-3-fluoro-phenoxy]-propionic Acid]
solubility of compound (I) [1]: lower
Cmax/Tmax ratio that will maintain a low incidence for emesis (human subjects; [3]): less than 100 ng/ml/hr
Cmax/Tmax ratio that will maintain a low incidence of nausea (human subjects; [3]): less than 40 ng/ml/hr
dosages that could not be successfully administered due to the severity of nausea and emesis (human subjects; fasted state): greater than 10 mg
dosages that could not be successfully administered due to the severity of nausea and emesis (human subjects; fed state): > 30 mg
Cmax ([2]; read-out: threshold for emesis (Cmax)): ~0.2 µg/mL
Cmax ([2]; read-out: threshold for nausea (Cmax)): ~0.06 µg/mL
